What was measured:
IL-6 = test: TPA-induced IL-6 production in keratinocytes (ELISA); type: cell-based, human; settings: Homo sapiens, Keratinocyte, read-out: Percent Inhibition of IL-6
collagen 1 mRNA = test: Collagen mRNA in fibroblasts by RT-PCR; type: cell-based, human; settings: fibroblast cell cultures treated 72 hours
Description: The presently claimed and disclosed inventive concept(s) further contemplates use of various DHE, IE and EV compositions and salts, esters, ethers, and derivatives thereof to mitigate the effects of aging on the skin. For all aging studies, normal human fibroblast cell cultures were used. These cells normally produce collagen, elastin and hyaluronic acid. As the skin ages, the fibroblasts in the dermis lose their ability to produce these three key components of skin, and the skin consequently loses elasticity, thickness and smooth texture. In addition, as fibroblasts age, they increase the expression of certain enzymes that destroy collagen and elastin. There are about 13 of these enzymes, collectively referred to as MMPs (matrix metalloproteinases). One of the principal MMPs, MMP-1, is responsible for collagen degradation. […] Fibroblast cell cultures were treated with either IE, DHE or EV for 72 hours at which time the amount of collagen mRNA present in the cells was determined.

IL-8 [1] = test: IL-1-induced IL-8 production in fibroblasts (ELISA); type: cell-based, human; settings: Homo sapiens, Fibroblast, Fibroblasts (IL-1), read-out: Percent Inhibition of IL-8
IL-8 [2] = test: UV-induced IL-8 production in fibroblasts (ELISA); type: cell-based, human; settings: Homo sapiens, Fibroblast, read-out: Percent Inhibition of IL-8
Procedure: (§1) In one study, various concentrations of DHE were added to culture medium and these media were placed on human fibroblast cell cultures (results shown in FIG. 1). Cells were either not induced or induced with UVB radiation to stimulate cytokine/PGE-2 production. At 24 hours after treatment, the cell culture medium was removed and assayed by ELISA methods for the expression of PGE-2, various cytokines and chemokines.
(§2) DHE and IE both have inhibitory effects on the production of the inflammatory mediators in fibroblasts.

TIMP-1 = TIMP-1 mRNA in fibroblasts by PCR; type: cell-based, human
Description: The presently claimed and disclosed inventive concept(s) further contemplates use of various DHE, IE and EV compositions and salts, esters, ethers, and derivatives thereof to mitigate the effects of aging on the skin. For all aging studies, normal human fibroblast cell cultures were used. These cells normally produce collagen, elastin and hyaluronic acid. As the skin ages, the fibroblasts in the dermis lose their ability to produce these three key components of skin, and the skin consequently loses elasticity, thickness and smooth texture. In addition, as fibroblasts age, they increase the expression of certain enzymes that destroy collagen and elastin. There are about 13 of these enzymes, collectively referred to as MMPs (matrix metalloproteinases). One of the principal MMPs, MMP-1, is responsible for collagen degradation. For experiments herein to determine the effects of DHE, IE and EV on collagen, elastin and hyaluronic acid, fibroblasts were treated with the compounds for 72 hours, mRNA was then isolated, and analyzed for abundance by RT-PCR (Reverse transcriptase-Polymerase Chain Reaction).
Fibroblasts in the skin not only produce enzymes (MMPs) that destroy the skin matrix but they also produce proteins (Tissue Inhibitors of Metalloproteinases, i.e., TIMPS) that inhibit these enzymes. There are several TIMPs, but one that is most important for inhibiting MMPs is TIMP-1. […] Shown in FIG. 11 is PCR data showing the up-regulation of TIMP-1 mRNA by these compounds.

IL-8 [3] = test: TNF-α-induced IL-8 production in monocytes; type: cell-based; settings: Monocyte, read-out: Percent Inhibition of IL-8
Description: (§3) DHE and IE both have inhibitory effects on the production of the inflammatory mediators in monocytes.

TNF-α = test: LPS-induced TNF-α production in monocytes; type: cell-based; settings: Monocyte; Monocytes (LPS); 100 uM; read-out: Percent Inhibition of TNF-α
Description: as §3

IL-8 [4] = test: LPS-induced IL-8 production in monocytes; type: cell-based; settings: Monocyte; Monocytes (LPS); 100 uM; read-out: Percent Inhibition of IL-8
Description: as §3

tyrosinase = test: Western immunoblot of tyrosinase abundance in human melanocyte extracts; type: cell-based
Description: FIGS. 14-17 show the skin-lightening effects of topically-applied formulations of isoeugenol and its ester isoeugenol acetate (a.k.a. isoeugenyl acetate) in the treatment of hyperpigmented areas in the skin, wherein a reduction of melanin pigment in the skin is caused by the topical application of the formulations. In addition to blocking a post-tyrosinase step in melanin synthesis, IE and IE acetate can inhibit the expression of the tyrosinase protein in human melanocytes. […] If the cell extracts contain tyrosinase when an aliquot of extract is placed in a tube containing L-DOPA (a tyrosinase substrate) in buffer, the enzyme will convert the DOPA to melanin. The melanin will appear brownish-black in the assay tube. If IE or IE-acetate has inhibited tyrosinase synthesis in melanocytes, then the extracts from these cells will contain no enzyme and will not be able to produce melanin from DOPA in the assay tube. […] In this assay, cell extracts from human melanocytes either left untreated or treated with 200 micromolar of either IE or isoeugenol acetate for 9 days are run on SDS polyacrylamide electrophoresis gels to separate tyrosinase from other proteins. The tyrosinase in the gel is then blotted to a membrane and the tyrosinase detected by staining with a specific anti-tyrosinase antibody. The antibody-bound tyrosinase is then visualized by chemiluminescence.

IL-8 [5] = test: UV-induced IL-8 production in keratinocytes (ELISA); type: cell-based, human; settings: Homo sapiens, Keratinocyte, read-out: Percent Inhibition of IL-8
Procedure: as §1
When similar experiments were carried out with human keratinocytes, DHE was again found to markedly suppress the UVR induction of PGE-2, with a concentration of 50 uM inhibiting the production of PGE-2 by over 60% (results shown in FIG. 2). […] Further, since PGE-2 is known to be a principal factor in the development of actinic keratosis and skin cancer, DHE can also be used in treating these conditions.
DHE and IE both have inhibitory effects on production of the inflammatory mediators in keratinocytes.

PGE-2 = test: IL-1-induced PGE-2 production in fibroblasts (ELISA); type: cell-based, human; settings: Homo sapiens, Fibroblast, Fibroblasts (IL-1), read-out: Percent Inhibition of PGE-2
Procedure: as §1, with “Cells were either not induced or induced with UVB radiation to stimulate cytokine/PGE-2 production.” left out
as §2

MCP-1 = test: LPS-induced MCP-1 production in monocytes; type: cell-based; settings: Monocyte; Monocytes (LPS); 100 uM; read-out: Percent Inhibition of MCP-1
Description: as §3

Q: `CC=Cc1ccc(O)c(OC)c1` [IE, isoeugenol] was tested. Which inhibition at 100 µM (IL-6) did it give?
A: 94%

Q: And the “collagen production (collagen mRNA)” value (collagen 1 mRNA)?
A: stimulation

Q: What about the inhibition at 100 µM (IL-8 [1]) of the same compound?
A: 98%

Q: What about the inhibition at 100 µM (IL-8 [2]) of the same compound?
A: 2%

Q: And the “production of TIMP-1 (TIMP-1 mRNA)” value (TIMP-1)?
A: significantly stimulate

Q: What about the inhibition at 100 µM (IL-8 [3]) of the same compound?
A: 78%

Q: What about the inhibition at 100 µM (TNF-α) of the same compound?
A: 80%

Q: What about the inhibition at 100 µM (IL-8 [4]) of the same compound?
A: 75%

Q: What about the “tyrosinase abundance (relative densitometric units)” value (tyrosinase; human melanocyte extracts, 200 μM, 9 days, control approximately 7.25 RDU) of the same compound?
A: about 3 RDU

Q: What about the “tyrosinase present (western immunoblot)” value (tyrosinase; human melanocytes treated with 200 micromolar for 9 days) of the same compound?
A: almost no detectable tyrosinase

Q: And the inhibition at 100 µM (IL-8 [5])?
A: 76%

Q: And the inhibition at 100 µM (PGE-2)?
A: 81%

Q: What about the inhibition at 100 µM (MCP-1) of the same compound?
A: 87%
